# Assays:
# [1] = molecular target: T1, MMP-2 (Homo sapiens, UniProt P08253); assay: MMP-2 inhibition, fluorogenic substrate FS-6; type: biochemical; conditions: [FS-6] = 2.5 µM, [enzyme] = 0.5 nM, 0.1 M Tris, pH 7.4, 37 °C; n.i. = no inhibition in the studied range (>> 25 µM, for NAMI-A >> 600 µM)
# T1 construct: purchased Sigma-Aldrich
# T1 sequence (P08253 110-660): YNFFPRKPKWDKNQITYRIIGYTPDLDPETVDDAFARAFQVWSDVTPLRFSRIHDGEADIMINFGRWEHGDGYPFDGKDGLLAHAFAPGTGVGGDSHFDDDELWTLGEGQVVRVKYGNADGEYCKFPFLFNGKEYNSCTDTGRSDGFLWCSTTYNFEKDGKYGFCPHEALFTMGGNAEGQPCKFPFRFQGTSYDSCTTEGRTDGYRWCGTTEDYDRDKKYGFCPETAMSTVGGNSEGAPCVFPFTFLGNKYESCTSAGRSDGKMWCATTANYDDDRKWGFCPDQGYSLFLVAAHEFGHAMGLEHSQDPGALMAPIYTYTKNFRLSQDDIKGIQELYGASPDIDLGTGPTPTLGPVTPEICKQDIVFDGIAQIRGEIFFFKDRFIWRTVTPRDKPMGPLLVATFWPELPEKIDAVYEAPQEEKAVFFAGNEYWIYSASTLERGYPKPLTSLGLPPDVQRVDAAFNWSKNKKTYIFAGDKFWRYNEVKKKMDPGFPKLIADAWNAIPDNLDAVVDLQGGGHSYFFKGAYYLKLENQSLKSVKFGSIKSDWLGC
# Procedure: (§1) MMP-9 and MMP-2 were activated at 4 °C using 1 mM APMA overnight before the experiments. MMP-2 and MMP-9 assays were performed in 0.1 M Tris/HCl (pH 7.4, 37 °C) enriched with 0.1 M NaCl, 10 mM CaCl2, 0.1 mM ZnCl2 and 0.05% Brij35. […] Kinetic fluorescence measurements were performed using a Perkin Elmer LS55 spectrofluorimeter (λex/λem = 325/400 nm). The obtained fluorescence intensities were corrected due to inner filter effect according to the following equation [31]: […] where Fobs denotes the measured fluorescence intensity, while Aλem and Aλex are the absorbance of sample at emission and excitation wavelengths.
# (§2) The enzyme activity in the presence of inhibitors was expressed as a fraction of initial reaction rate (vi/v0 ratio, v0—initial reaction rate, vi—initial reaction rate in the presence of inhibitor). IC50 parameters were calculated from a dose-response plot of enzyme fractional activity as a function of inhibitor concentration, using the Hill equation (OriginPro2018). Experiments were repeated three times and results are presented as mean values and standard deviation of the mean.
# [2] = tested on: MMP-9; assay: Western blot, expression of the active form of MMP-9; type: cell-based, human; conditions: A549 cells, 24 h, 100 µM, normalized to β-actin
# Procedure: A549 cells were seeded in a 25 cm^2 flask with the density of 1.25 × 10^6 cells per flask in complete medium and cultured for 24 h. […] After the incubation, cells were washed with ice-cold PBS and lysed using RIPA buffer containing Halt proteases inhibitor cocktail (Thermo Fisher Scientific). Protein samples (the same concentration per lane) were separated on a 12% sodium dodecyl sulfate polyacrylamide gel. PageRuler™ Prestained Protein Ladder (Thermo Fisher Scientific) was used to determine approximate molecular weights of resolved proteins. Electrophoresis was performed through the stacking gel for 25 min at 60 V and resolving gel for 50 min at 170 V at room temperature using a PowerPac™ Basic Power Supply (Bio-Rad, Inc., Hercules, CA, USA). […] Reactive protein was detected after membrane was washed three times in TBST using GE Healthcare Amersham™ ECL Prime Western Blotting Detection Reagent (GE Healthcare Inc., Chicago, IL, USA). Only one protein was detected at a time, each membrane was stripped in 0.2 M NaOH over 20 min, washed three times in water and blocked again before proceeding with another primary antibody. Data were collected by ChemiDoc XRS+ Imaging System (Bio-Rad, Inc., Hercules, CA, USA) and analyzed with Image Lab v. […]
# [3] = tested on: B16F10 melanoma cells; set-up: method as in PMID 16368900; conditions: 100 µM; cited from earlier work
# [4] = molecular target: T2, MMP-9 (Homo sapiens, UniProt P14780); assay: MMP-9 inhibition, fluorogenic substrate FS-6; type: biochemical; conditions: [FS-6] = 2.5 µM, [enzyme] = 0.5 nM, 0.1 M Tris, pH 7.4, 37 °C, fluorescence assay; n.i. = no inhibition in the studied range (>> 25 µM, for NAMI-A >> 600 µM)
# T2 construct: purchased Sigma-Aldrich
# Procedure: as §1, §2
# [5] = tested on: A549 cells; assay: Trypsin resistance assay (cell adherence); type: cell-based, human
# Procedure: Cells susceptibility to detachment upon incubation with the studied compounds was evaluated by checking their resistance to trypsin treatment. Cells were seeded into 96-well plate with the density of 3 × 10^4 cells per cm^2 in complete medium and cultured for 24 h. Then, cells were incubated with various concentrations of the studied compounds for 24 h. Subsequently, the cells were washed and 30 µL trypsin solution (0.05%) was added to each well for 10 min incubation at 37 °C. Next, cells were washed with PBS and Alamar Blue assay was performed to quantify adherent cells. The received results were normalized with appropriate wells without the trypsin treatment to exclude the possible toxicity of the studied compounds and presented as a percentage of control (untreated) cells. Experiments were performed in triplicates and each experiment was repeated five times to obtain mean values and standard error of the mean.
# [6] = tested on: A549 cells; conditions: cited from earlier work
# [7] = tested on: A549 cells; assay: Cytotoxicity, MTT assay; type: cell-based, human
# Procedure: In vitro studies were conducted using human lung adenocarcinoma A549 cell line. Cells were routinely cultured in Dulbecco’s Modified Eagle Medium (DMEM, Corning, Corning, NY, USA) supplemented with 10% fetal bovine serum (FBS, Eurx, Gdańsk, Poland) (v/v) and 1% penicillin-streptomycin (100 units/mL–100µg/mL, Corning) (v/v) and incubated at 37 °C in humidified atmosphere with 5% CO2 (v/v). The cytotoxicity of the Ru(II) complexes was evaluated using MTT assay (Sigma-Aldrich). Cells were seeded into 96-well plate with the density of 3 × 10^4 cells per cm^2 in complete medium and cultured for 24 h. Then medium was removed and various concentrations of the studied compounds in basic medium were added. The final DMSO concentration in cell culture was fixed at 0.1% (v/v). […] After the incubation, MTT was removed, and the formed violet formazan crystals were dissolved in the 100 µL of DMSO:methanol (1:1) mixture. […] Experiments were performed in triplicates and repeated three times.
# [8] = tested on: A549 cells; assay: Cellular uptake of ruthenium (ICP-MS); type: cell-based, human; conditions: 1 µM complex, 24 h
# Procedure: For cellular uptake A549 cells were seeded in a 6-well plate with the density of 4 × 10^4 cells per cm^2 in complete medium and cultured for 24 h. […] Any dead cells were eliminated by washing cells’ monolayer with PBS. Subsequently, the incubated cells were washed, detached by trypsin treatment and counted. The cells were isolated by centrifugation and digested in concentrated nitric acid overnight at room temperature. The solutions were diluted with Millipore water to a final nitric acid concentration of 2%. The Ru content in the samples was measured by inductively coupled plasma mass spectrometry (ICP-MS) using NexION 2000C (Perkin Elmer). Experiments were repeated three times. Results were calculated as ruthenium concentration per cell and presented as mean values and standard deviation of mean. Similarly, the content of Ru ions was measured in subcellular fraction obtained as described in chapter 4.5.
# T2 sequence (P14780 107-707 limits assumed): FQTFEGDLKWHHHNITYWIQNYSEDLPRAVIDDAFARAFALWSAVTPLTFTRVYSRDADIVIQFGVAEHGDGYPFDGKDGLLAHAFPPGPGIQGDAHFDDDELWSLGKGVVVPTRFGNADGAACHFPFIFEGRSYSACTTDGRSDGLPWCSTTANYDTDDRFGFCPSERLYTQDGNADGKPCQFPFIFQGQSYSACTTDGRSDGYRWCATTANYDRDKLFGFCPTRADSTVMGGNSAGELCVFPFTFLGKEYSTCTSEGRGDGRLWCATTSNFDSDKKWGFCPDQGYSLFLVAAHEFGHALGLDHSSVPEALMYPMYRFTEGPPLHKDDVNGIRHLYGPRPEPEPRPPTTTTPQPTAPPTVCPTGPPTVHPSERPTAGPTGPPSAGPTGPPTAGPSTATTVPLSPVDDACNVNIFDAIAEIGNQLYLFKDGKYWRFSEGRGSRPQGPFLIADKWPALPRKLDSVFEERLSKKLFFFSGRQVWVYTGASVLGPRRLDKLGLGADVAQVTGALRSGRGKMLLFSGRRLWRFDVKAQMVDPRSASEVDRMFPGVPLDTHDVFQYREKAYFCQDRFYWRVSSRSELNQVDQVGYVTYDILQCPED
smiles,measurement,setting,value
"CS(C)=O.[Cl-].[Cl-].[Cl-].[Cl-].[Ru+3].c1c[nH+]c[nH]1.c1c[nH]cn1 [NAMI-A, trans-[tetrachlorido(1H-imidazole)(S-dimethylsulphoxide)ruthenate(III)]]",IC50 for MMP-2,[1],no inhibitory properties and n.i.
same,Reduction of expression of active MMP-9,[2],43%
same,Adhesion strength vs. control,[3],up to 162 % vs. control
same,IC50 for MMP-9,[4],no inhibitory properties and n.i.
same,Cell adherence (adhesion strength) compared to control,[5]; NAMI-A 100 µM,ca. 250%
N.N.[Cl][Pt][Cl] [cisplatin],IC50,[6],70 µM
[Ru+2].c1ccc(-c2ccnc3c2ccc2c(-c4ccccc4)ccnc23)cc1.c1ccc(-c2ccnc3c2ccc2c(-c4ccccc4)ccnc23)cc1.c1ccc(-c2ccnc3c2ccc2c(-c4ccccc4)ccnc23)cc1 [[Ru(dip)3]^2+],Cytotoxicity (IC50),"[7]; 24 h incubation, MTT",most cytotoxic compound
same,IC50,[1],8.3 ± 1.1 µM
same,IC50,[4],4.1 ± 1.6 µM
same,Effect on cell adhesion / cell detachment (in words),"[5]; 24 h, non-toxic concentrations, effect seen from 1 µM",high activity in inhibiting of cell detachment
same,Increase of ruthenium concentration in a cell (uptake),[8],highest uptake by cells
CNC(=O)[C@H](Cc1c[nH]c2ccccc12)NC(=O)[C@@H](CC(=O)NO)CC(C)C [GM6001],Toxicity at the concentration used,[7]; 1–8 µM,non-toxic concentration
same,Effect on cell adhesion properties (in words),[5]; GM6001 1–8 µM,no alteration in cell adhesion properties was observed
[Ru+2].c1ccc(-c2ccccn2)nc1.c1ccc(-c2ccnc3c2ccc2c(-c4ccccc4)ccnc23)cc1.c1ccc(-c2ccnc3c2ccc2c(-c4ccccc4)ccnc23)cc1 [[Ru(dip)2(bpy)]^2+],IC50,[1],22.5 ± 2 µM
same,IC50,[4],6.2 ± 2.8 µM

# Source: article PMC8538513, “Inhibition of Matrix Metalloproteinases and Cancer Cell Detachment by Ru(II) Polypyridyl Complexes Containing 4,7-Diphenyl-1,10-phenanthroline Ligands—New Candidates for Antimetastatic Agents” (Pharmaceuticals, 2021)
